Results on ten molecules are retold here after patent publication US10660334B2, “Fused bicyclic heterocycle derivatives as pesticides” (Bayer CropScience Aktiengesellschaft, priority 2016, dated 2020).

Structures are written as SMILES.

The test system of data set [1] is Ctenocephalides felis. Briefly: Ctenocephalides felis oral test. It counts as in vivo. As to conditions: application rate 100 ppm in citrated cattle blood, after 2 days, adult cat fleas. As for the experimental part: Ctenocephalides felis—Oral Test Solvent: dimethyl sulfoxide To produce a suitable active ingredient formulation, 10 mg of active ingredient are mixed with 0.5 ml of dimethyl sulfoxide. Dilution with citrated cattle blood gives the desired concentration. About 20 unfed adult cat fleas (Cienocephalides felis) are placed into a chamber which is closed at the top and bottom with gauze. A metal cylinder whose bottom end is closed with parafilm is placed onto the chamber. The cylinder contains the blood/active ingredient formulation, which can be imbibed by the fleas through the parafilm membrane. After 2 days, the kill in % is determined. 100% means that all of the fleas have been killed; 0% means that none of the fleas have been killed.

Data set [2] deals with Lucilia cuprina. The data set can be described thus: Lucilia cuprina test. The format is in vivo. As to conditions: application rate 100 ppm, L1 larvae, after 2 days. As to the method: Lucilia cuprina Test Solvent: dimethyl sulfoxide To produce a suitable active ingredient formulation, 10 mg of active ingredient are mixed with 0.5 ml of dimethyl sulfoxide, and the concentrate is diluted with water to the desired concentration. About 20 L1 larvae of the Australian sheep blowfly (Lucilia cuprina) are transferred into a test vessel containing minced horsemeat and the active ingredient formulation of the desired concentration. After 2 days, the kill in % is determined. 100% means that all the larvae have been killed; 0% means that no larvae have been killed.

Data set [3] has as its system Meloidogyne incognita. Briefly: Meloidogyne incognita test. The format is in vivo. The settings on record: application rate 20 ppm, lettuce, after 14 days. As for the experimental part: Meloidogyne incognita Test Solvent: 125.0 parts by weight of acetone To produce a suitable active ingredient formulation, 1 part by weight of active ingredient is mixed with the stated amount of solvent and the concentrate is diluted to the desired concentration with water. Vessels are filled with sand, active ingredient solution, an egg/larvae suspension of the southern root-knot nematode (Meloidogyne incognita) and lettuce seeds. The lettuce seeds germinate and the plants develop. The galls develop on the roots. After 14 days, the nematicidal efficacy in % is determined by the formation of galls. 100% means that no galls were found; 0% means that the number of galls on the treated plants corresponds to the untreated control.

Data set [4] relates to Myzus persicae. The data set can be described thus: Myzus persicae oral test. It counts as in vivo. As to conditions: 120 h, application rate 4 ppm, after 5 days, read-out: efficacy (aphids killed). As for the experimental part: Myzus persicae—Oral Test Solvent: 100 parts by weight of acetone To produce a suitable active ingredient formulation, 1 part by weight of active ingredient is dissolved with the stated parts by weight of solvent and made up to the desired concentration with water. 50 μl of the active ingredient preparation are transferred into microtitre plates and made up to a final volume of 200 μl with 150 μl of IPL41 insect medium (33%+15% sugar). Subsequently, the plates are sealed with parafilm, which a mixed population of green peach aphids (Myzus persicae) within a second microtitre plate is able to puncture and imbibe the solution. After 5 days, the efficacy in % is determined. 100% means that all the aphids have been killed; 0% means that no aphids have been killed.

The subject of data set [5] is Myzus persicae. Briefly: Myzus persicae spray test. It counts as in vivo. The settings on record: foliar, 120 h, spray on Chinese cabbage leaf discs, after 5 days, read-out: efficacy (aphids killed); for pest or weed control at 20 g/ha: application rate 20 g/ha; for pest or weed control at 100 g/ha: application rate 100 g/ha. As to the method: Myzus persicae—Spray Test Solvent: 78 parts by weight of acetone • • 1.5 parts by weight of dimethylformamide Emulsifier: alkylaryl polyglycol ether To produce a suitable active ingredient formulation, 1 part by weight of active ingredient is dissolved with the specified parts by weight of solvent and made up to the desired concentration with water containing an emulsifier concentration of 1000 ppm. To produce further test concentrations, the formulation is diluted with emulsifier-containing water. Discs of Chinese cabbage leaves (Brassica pekinensis) infested by all stages of the green peach aphid (Myzus persicae) are sprayed with an active ingredient formulation of the desired concentration. After 5 days, the efficacy in % is determined. 100% means that all the aphids have been killed; 0% means that no aphids have been killed.

Data set [6] deals with Phaedon cochleariae. Briefly: Phaedon cochleariae spray test. It counts as in vivo. As to conditions: application rate 100 g/ha, spray on Chinese cabbage leaf discs, after 7 days. As for the experimental part:
Phaedon cochleariae—Spray Test
(§1) Solvent: 78.0 parts by weight of acetone • • 1.5 parts by weight of dimethylformamide
(§2) Emulsifier: alkylaryl polyglycol ether
(§3) To produce a suitable active ingredient formulation, 1 part by weight of active ingredient is dissolved with the specified parts by weight of solvent and made up to the desired concentration with water containing an emulsifier concentration of 1000 ppm. To produce further test concentrations, the formulation is diluted with emulsifier-containing water.
Discs of Chinese cabbage leaves (Brassica pekinensis) are sprayed with an active ingredient formulation of the desired concentration and, after drying, populated with larvae of the mustard beetle (Phaedon cochleariae).
After 7 days, the efficacy in % is determined. 100% means that all the beetle larvae have been killed; 0% means that no beetle larvae have been killed.

The subject of data set [7] is Spodoptera frugiperda. Briefly: Spodoptera frugiperda spray test. The format is in vivo. As to conditions: application rate 100 g/ha, spray on maize leaf discs, after 7 days. As for the experimental part: Spodoptera frugiperda—Spray Test Solvent: 78.0 parts by weight of acetone • • 1.5 parts by weight of dimethylformamide Emulsifier: alkylaryl polyglycol ether To produce a suitable active ingredient formulation, 1 part by weight of active ingredient is dissolved with the specified parts by weight of solvent and made up to the desired concentration with water containing an emulsifier concentration of 1000 ppm. To produce further test concentrations, the formulation is diluted with emulsifier-containing water. Leaf discs of maize (Zea mays) are sprayed with an active ingredient formulation of the desired concentration and, after drying, populated with caterpillars of the armyworm (Spodoptera frugiperda). After 7 days, the efficacy in % is determined. 100% means that all the caterpillars have been killed; 0% means that no caterpillar has been killed.

The subject of data set [8] is Tetranychus urticae. Briefly: Tetranychus urticae spray test, OP-resistant. It counts as in vivo. As to conditions: application rate 100 g/ha, spray on bean leaf discs, after 6 days. As to the method: Tetranychus urticae—Spray Test, OP-Resistant
as §1, §2, §3
Discs of bean leaves (Phaseolus vulgaris) infested with all stages of the greenhouse red spider mite (Tetranychus urticae) are sprayed with an active ingredient formulation of the desired concentration.
After 6 days, the efficacy in % is determined. 100% means that all the spider mites have been killed; 0% means that no spider mites have been killed.

In data set [9] the test system is Musca domestica. Briefly: Musca domestica test. It counts as in vivo. As to conditions: application rate 100 ppm, adult houseflies, after 2 days. As for the experimental part:
Musca domestica Test Solvent: dimethyl sulfoxide To produce a suitable active ingredient formulation, 10 mg of active ingredient are mixed with 0.5 ml of dimethyl sulfoxide, and the concentrate is diluted with water to the desired concentration. Vessels containing a sponge treated with sugar solution and the active ingredient formulation of the desired concentration are populated with 10 adult houseflies (Musca domestica). After 2 days, the kill in % is determined. 100% means that all of the flies have been killed; 0% means that none of the flies have been killed.

Data set [10] deals with Boophilus microplus. Briefly: Boophilus microplus injection test. The format is in vivo. The settings on record: application rate 20 μg/animal, injection into engorged adult female cattle ticks, after 7 days. As to the method:
Boophilus microplus—Injection Test Solvent: dimethyl sulfoxide To produce a suitable active ingredient formulation, 10 mg of active ingredient are mixed with 0.5 ml of solvent and the concentrate is diluted to the desired concentration with solvent. 1 μl of the active ingredient solution is injected into the abdomen of 5 engorged adult female cattle ticks (Boophilus microplus). The animals are transferred into dishes and kept in a climate-controlled room. Efficacy is assessed after 7 days by laying of fertile eggs. Eggs which are not visibly fertile are stored in a climate-controlled cabinet until the larvae hatch after about 42 days. An efficacy of 100% means that none of the ticks has laid any fertile eggs; 0% means that all the eggs are fertile.

The test system of data set [11] is Ctenocephalides felis. The data set can be described thus: Ctenocephalides felis in vitro contact test with adult cat fleas. As to conditions: application rate 5 μg/cm^2 (=500 g/ha), after 48 h. It counts as in vivo. As to the method: Ctenocephalides felis—In Vitro Contact Tests with Adult Cat Fleas For the coating of the test tubes, 9 mg of active ingredient are first dissolved in 1 ml of acetone p.a. and then diluted to the desired concentration with acetone p.a. 250 μl of the solution are distributed homogeneously on the inner walls and the base of a 25 ml glass tube by turning and rocking on an orbital shaker (rocking rotation at 30 rpm for 2 h). With 900 ppm of active ingredient solution and internal surface area 44.7 cm^2, given homogeneous distribution, an area-based dose of 5 μg/cm^2 is achieved. After the solvent has evaporated off, the tubes are populated with 5-10 adult cat fleas (Ctenocephalides felis), sealed with a perforated plastic lid and incubated in a horizontal position at room temperature and ambient humidity. After 48 h, efficacy is determined. To this end, the tubes are stood upright and the fleas are knocked to the base of the tube. Fleas which remain motionless at the base or move in an uncoordinated manner are considered to be dead or moribund. […] 100% efficacy means that all the fleas were dead or moribund. 0% efficacy means that no fleas were harmed.

Data set [12] can be described thus: log P by HPLC on reversed-phase column (EEC Directive 79/831 Annex V.A8), acidic range. The format is physicochemical. The settings on record: reversed-phase C18 HPLC column; HPLC reversed-phase C18, 55° C., pH 2.7, 0.1% aqueous formic acid and acetonitrile; read-out: log P (HCOOH). As for the experimental part: The log P values are measured according to EEC Directive 79/831 Annex V.A8 by HPLC (high-performance liquid chromatography) on a reversed-phase column (C18). Temperature: 55° C. The LC-MS determination in the acidic range is effected at pH 2.7 with 0.1% aqueous formic acid and acetonitrile (containing 0.1% formic acid) as eluents; linear gradient from 10% acetonitrile to 95% acetonitrile. Called log P (HCOOH) in the table.

Take `CCS(=O)(=O)c1c(-c2nc3cc(C(F)(F)C(F)(F)F)ncc3n2C)nc2n1CCCC2` [Example I-012]: the “efficacy (kill)” value in data set [1] turned out to be 100%. Also, the “efficacy (kill)” value in data set [2] stood at 100%. The “nematicidal efficacy (formation of galls)” value in data set [3] came out at 90%. In addition, in data set [4], the pest or weed control at 4 ppm was found to be 100%. Also, in data set [5], the pest or weed control at 20 g/ha came out at 90% and the pest or weed control at 100 g/ha came out at 90%. For the same molecule, in [6], the “efficacy (beetle larvae killed)” value worked out at 100%. The “efficacy (caterpillars killed)” value in [7] was 83%.
For `CCS(=O)(=O)c1c(-c2nc3cc(C(F)(F)F)ncc3n2C)nc2n1CC(C(F)(F)F)CC2` (stereo not shown) [Example I-003], the pest or weed control at 4 ppm in [4] amounted to 100%. In addition, the pest or weed control at 100 g/ha in data set [5] is 100%. Moreover, in [8], the “efficacy (spider mites killed)” value is 90%.
Regarding `CCS(=O)(=O)c1c(-c2nc3cc(C(F)(F)F)cnc3n2C)nc2n1CCCC2` [Example I-011], the results for the “efficacy (kill)” value in data set [1], in data set [2] and in data set [9] were 95%, 100% and 80%, respectively. The pest or weed control at 4 ppm in [4] worked out at 100%. For the same molecule, the pest or weed control at 20 g/ha in data set [5] came out at 90%. Moreover, in data set [5], the pest or weed control at 100 g/ha was 90%.
For the molecule `CCS(=O)(=O)c1c(-c2nc3cc(C(F)(F)F)ncc3n2C)nc2n1CC(C)CC2` (stereo not shown) [Example I-009], in data set [10], the “efficacy (laying of fertile eggs)” value worked out at 100%. For the same molecule, the “efficacy (kill)” value in data set [1] stood at 80%; in [2], 100%; in data set [9] it was 100%. Besides, in [4], the pest or weed control at 4 ppm stood at 100%. Also, the pest or weed control at 20 g/ha in data set [5] was determined as 90%. Besides, the pest or weed control at 100 g/ha in data set [5] was 100%.
Consider `CCS(=O)(=O)c1c(-c2nc3cc(C(F)(F)C(F)(F)F)cnc3n2C)nc2n1CCCC2` [Example I-017], for which the pest or weed control at 4 ppm in data set [4] worked out at 100%. In [5], the pest or weed control at 20 g/ha was determined as 90% and the pest or weed control at 100 g/ha was found to be 100%. The “efficacy (caterpillars killed)” value in data set [7] was determined as 100%.
With `CCS(=O)(=O)c1c(-c2nc3cc(C(F)(F)F)ncc3n2C)nc2n1CCC(C(F)(F)F)C2` (stereo not shown) [Example I-010], the pest or weed control at 4 ppm in data set [4] stood at 100%. For the same molecule, in [5], the pest or weed control at 20 g/ha turned out to be 90%. In [7], the “efficacy (caterpillars killed)” value is reported as 83%.
As for `CCS(=O)(=O)c1c(-c2nc3cc(C(F)(F)F)ncc3n2C)nc2n1CCC(C)C2` (stereo not shown) [Example I-007], the “efficacy (fleas dead or moribund)” value in data set [11] came to 100%. Further, the “efficacy (kill)” value in data set [1] is given as 80%; in data set [2], 100%; in data set [9], 100%. The pest or weed control at 4 ppm in data set [4] is 100%. Moreover, the pest or weed control at 20 g/ha in data set [5] came to 100%. Further, the pest or weed control at 100 g/ha in data set [5] is 100%.
As for `CCS(=O)(=O)c1c(-c2nc3cc(C(F)(F)F)ccc3n2C)nc2n1CCCC2` [Example I-015], in [2], the “efficacy (kill)” value came to 100%. The “efficacy (kill)” value in data set [9] is listed as 90%. Also, in data set [4], the pest or weed control at 4 ppm was 100%. Also, in data set [5], the pest or weed control at 20 g/ha was found to be 90% and the pest or weed control at 100 g/ha stood at 90%. Also, in [6], the “efficacy (beetle larvae killed)” value worked out at 83%.
Turning to `Cn1c(-c2nc3n(c2S(C)(=O)=O)CCCC3)nc2cc(C(F)(F)C(F)(F)F)ncc21` [Example I-013], the “efficacy (kill)” value was 95% in data set [1], 100% in data set [2] and 80% in data set [9]. For the same molecule, in data set [4], the pest or weed control at 4 ppm came to 100%. The pest or weed control at 100 g/ha in [5] amounted to 90%. Further, the “efficacy (beetle larvae killed)” value in data set [6] turned out to be 83%.
Turning to `CCSc1c(-c2nc3cc(C(F)(F)F)ncc3n2C)nc2n1CCCC2` [Example I-001, 2-(3-Ethylsulfanyl-5,6,7,8-tetrahydroimidazo[1,2-a]pyridin-2-yl)-3-methyl-6-(trifluoromethyl)imidazo[4,5-c]pyridine], the “efficacy (fleas dead or moribund)” value in data set [11] was determined as 100%. Also, the chromatographic logP in data set [12] was 2.37.
